US4521537A, “Spiro[2H-1,4-benzodioxepin-3(5H)4'-piperidine and -3'-pyrrolidine] compounds and their use as antihypertensive agents” (Hoechst-Roussel Pharmaceuticals Incorporated, priority 1984, dated 1985)
Where a name gives a salt, the structure may show the parent alone. Read-outs that look alike come from different tables or passages of the source.

Tests used:
[1] = tested on: spontaneous hypertensive rat; experiment: antihypertensive activity, spontaneous hypertensive rat (SHR) test, indirect tail cuff method; type: in vivo
Description: Compounds of this invention are useful as antihypertensive agents due to their ability to depress blood pressure in mammals. Antihypertensive activity is measured in the spontaneous hypertensive rat by the indirect tail cuff method described by A. Schwartz, Ed., Methods in Pharmacology, Vol. page 135, Appleton Century Crafts, New York (1971). […] The drop in blood pressure is measured on the third day following administration. The antihypertensive activity is expressed as mm Hg decrease in mean arterial blood pressure.

mice = experiment: phenylquinone-induced writhing test in mice (PQW), analgesia; type: in vivo, male, CD-1 mice; conditions: Mus musculus; for change in vivo at 20 mg/kg / change in vivo at 5 mg/kg / change in vivo at 10 mg/kg: read-out: PQW % (percent inhibition of writhing); for change in vivo at 5 mg/kg: 5 mg/kg SC; for ED50: read-out: ED50 (PQW)
Description: Compounds of this invention produce analgesia when administered to mammals. A phenylquinone-induced writhing test in mice (PQW) was used as an assay to detect analgesia. The procedure employed was a modification of Siegmund, E., Cadmus, R. and Lu, G: Proc. Soc. Exptl. Bio. Med., 95: 729 (1957). 12.5 mg of phenyl-p-benzoquinone were dissolved in 5 ml of 95% ethanol and q.s. to 100 ml with distilled water and administered to mice (10 ml/kg, i.p.). This produces a characteristic "writhe" which is defined as an inward rotation of one or more feet with twisting and turning of the trunk, drawing in of the abdominal wall, lordosis and arching of the back.
A total of 28 male, CD-1 mice (18 to 30 grams) were employed for a time response. Animals recived food and water ad libitum. Drugs to be tested were prepared with distilled water and, if insoluble, one drop of a suitable surfactant was added.
Twenty animals (5/group) were administered the drug 15, 30, 45 and 60 minutes prior to phenylquinone injections. Control animals (2/group) received an equal amount of vehicle. After the administration of phenylquinone the mice were placed separately into one-liter beakers and 5 minutes were allowed to lapse. The mice were then observed for a period of 10 minutes and the number of writhes were recorded for each animal. The formula for computing percent inhibition is: [formula]
The time period with the greatest percent of inhibition is considered the peak time.
A dose range is run in the same fashion as a time response except 10 animals per group were tested at the peak time of drug activity. Fifty animals, 4 drug groups, and a vehicle control were employed. Animals were dosed and tested in a randomized manner. An estimated ED50 was calculated by a computer linear regression analysis.

| Structure (SMILES) | SHR mm Hg (decrease in mean arterial blood pressure) ([1]; Table II, 50 mg/kg PO) [mm Hg] | change in vivo at 20 mg/kg (mice; Table II, 20 mg/kg SC) [%] | change in vivo at 20 mg/kg (mice; Table III, 20 mg/kg SC) [%] | further results |
| --- | --- | --- | --- | --- |
| CC1Oc2ccccc2COC12CCN(CC#N)CC2 (centres unmarked) [Example 45, 1'-(Cyanomethyl)-2-methylspiro[2H-1,4-benzodioxepin-3(5H)-4'-piperidine]] | -29 | -15 | – | – |
| CC1Oc2ccccc2COC12CCN(CCc1ccccc1)CC2 (centres unmarked) [Example 46, 2-Methyl-1'-(2-phenylethyl)-spiro[2H-1,4-benzodioxepin-3(5H)4'-piperidine]hydrochloride] | -12 | – | – | change in vivo at 5 mg/kg (mice; Table II): -87% |
| CC1Oc2ccccc2COC12CCN(CCO)CC2 (centres unmarked) [Example 48, 1'-(2-Hydroxyethyl)-2-methylspiro[2H-1,4-benzodioxepin-3(5H)4'-piperidine]] | -23 | -39 | – | – |
| CC1Oc2ccccc2COC12CCN(CCN)CC2 (centres unmarked) [Example 49, 1'-(2-Aminoethyl)-2-methylspiro[2H-1,4-benzodioxepin-3(5H)4'-piperidine]dioxalate] | -23 | -85 | – | ED50 (mice; Table II, SC, computer linear regression, peak time): 4.7 mg/kg |
| CC1Oc2ccccc2COC12CCN(CCNC(=N)N)CC2 (centres unmarked) [Example 50, [2-(2-Methylspiro[2H-1,4-benzodioxepin-3(5H)4'-piperidin]-1'-yl)ethyl]-guanidine hemisulfate hemihydrate] | – | -8 | – | – |
| CC1Oc2ccccc2COC12CCN(CC1CC1)CC2 (centres unmarked) [Example 51, 1'-Cyclopropylmethyl-2-methylspiro[2H-1,4-benzodioxepin-3(5H)4'-piperidine]oxalate] | – | – | – | change in vivo at 10 mg/kg (mice; Table II, 10 mg/kg SC): -61% |
| CC1Oc2ccccc2COC12CCN(CCCc1noc3cc(F)ccc13)CC2 (centres unmarked) [Example 52, 1'-[3-(6-Fluoro-1,2-benzisoxazol-3-yl)propyl]-2-methylspiro[2H-1,4-benzodioxepin-3(5H)4'-piperidine]maleate] | -67 | – | – | change in vivo at 5 mg/kg (mice; Table II): -82% |
| Cc1[nH]c2ccccc2c1CCCN1CCC2(CC1)OCc1ccccc1OC2C (centres unmarked) [Example 53, 2-Methyl-1'-[3-(2-methylindol-3-yl)propyl]spiro[2H-1,4-benzodioxepin-3(5H)4'-piperidine]fumarate] | -32 | -30 | – | – |
| CCCCCN1CCC2(CC1)OCc1ccccc1OC2C (centres unmarked) [Example 54, 2-Methyl-1'-pentylspiro[2H-1,4-benzodioxepin-3(5H)4'-piperidine]oxalate] | – | -36 | – | – |
| CC1Oc2ccccc2COC12CCN(CCCN)CC2 (centres unmarked) [Example 55, 2-Methyl-1'-(3-aminopropyl)spiro[2H-1,4-benzodioxepin-3(5H)4'-piperidine]dioxalate] | -28 | -28 | – | – |
| CC1Oc2ccccc2COC12CCN(CCc1ccc([N+](=O)[O-])cc1)CC2 (centres unmarked) [Example 56, 1'-[2-(4-Nitrophenyl)ethyl]2-methylspiro[2H-1,4-benzodioxepin-3(5H)4'piperidine]oxalate] | -17 | -30 | – | – |
| CC1Oc2ccccc2COC12CCN(CCc1ccc(N)cc1)CC2 (centres unmarked) [Example 57, 1'-[2-(4-Aminophenyl)ethyl]-2-methylspiro[2H-1,4-benzodioxepin-3(5H)4'-piperidine]maleate hydrate] | -12 | -99 | – | – |
| CC1Oc2ccccc2COC12CCN(CCN(C)C)CC2 (centres unmarked) [Example 58, 1'-[2-(N,N-dimethylamino)ethyl]-2-methylspiro[2H-1,4-benzodioxepin-3(5H)4'-piperidine]dihydrochloride] | – | -6 | – | – |
| CC1Oc2ccccc2COC12CCN(CCN1CCOCC1)CC2 (centres unmarked) [Example 59, 1'-[2-(1-Morpholino)ethyl]-2-methylspiro[2H-1,4-benzodioxepin-3(5H)4'-piperidine]dihydrochloride] | -18 | -52 | – | – |
| CC1Oc2ccccc2COC12CCN(CCC(C#N)(c1ccccc1)c1ccccc1)CC2 (centres unmarked) [Example 61, 2-Methyl-1'-[3-cyano-3,3-diphenylpropyl]spiro[2H-1,4-benzodioxepin-3(5H)4'-piperidine]hydrochloride] | – | – | – | change in vivo at 20 mg/kg (mice; sc): -25% |
| CC1Oc2cc(Cl)ccc2COC12CCNCC2 (centres unmarked) [Example 65, 8-Chloro-2-methylspiro[2H-1,4-benzodioxepin-3(5H)4'-piperidine]oxalate] | – | – | – | change in vivo at 10 mg/kg (mice; sc): -98% |

| Structure (SMILES) | SHR mm Hg (decrease in mean arterial blood pressure) ([1]; Table II, 50 mg/kg PO) [mm Hg] | change in vivo at 20 mg/kg (mice; Table II, 20 mg/kg SC) [%] | change in vivo at 20 mg/kg (mice; Table III, 20 mg/kg SC) [%] | further results |
| --- | --- | --- | --- | --- |
| CC1Oc2cc(Cl)ccc2COC12CCN(CC#N)CC2 (centres unmarked) [Example 66, 8-Chloro-1'-cyanomethyl-2-methylspiro[2H-1,4-benzodioxepin-3(5H)4'-piperidine]] | – | -9 | – | – |
| CC1Oc2ccccc2COC12CCN(CCC#N)CC2 (centres unmarked) [Example 67, 1'-(2-Cyanoethyl)-2-methylspiro[2H-1,4-benzodioxepin-3(5H)4'-piperidine]oxalate] | -30 | -40 | – | – |
| COC(=N)N1CCC2(CC1)OCc1ccccc1OC2C (centres unmarked) [Example 69, 2-Methylspiro[2H-1,4-benzodioxepin-3(5H)4'-piperidine]-1'-carboximidic acid, methyl ester hydrochloride] | – | – | -74 | – |
| CNC(=O)N1CCC2(CC1)OCc1ccccc1OC2C (centres unmarked) [Example 70, N,2-Dimethylspiro[2H-1,4-benzodioxepin-3(5H)4'-piperidine]-1'-carboxamide] | – | – | -35 | SHR mm Hg (decrease in mean arterial blood pressure) ([1]; Table III, 50 mg/kg PO): -39 mm Hg |
| CCNC(=O)N1CCC2(CC1)OCc1ccccc1OC2C (centres unmarked) [Example 71, N-Ethyl-2-methylspiro[2H-1,4-benzodioxepin-3(5H)4'-piperidine]-1'-carboxamide] | – | – | -46 | SHR mm Hg (decrease in mean arterial blood pressure) ([1]; Table III, 50 mg/kg PO): -67 mm Hg |
| CCOC(=N)N1CCC2(CC1)OCc1ccccc1OC2C (centres unmarked) [Example 72, 2-Methylspiro[2H-1,4-benzodioxepin-3(5H)4'-piperidine]-1'-carboximidic acid, ethyl ester hydrochloride] | – | – | -51 | SHR mm Hg (decrease in mean arterial blood pressure) ([1]; Table III, 50 mg/kg PO): -20 mm Hg |
| CC(=O)N1CCC2(CC1)OCc1ccccc1OC2C (centres unmarked) [Example 73, 1'-Acetyl-2-methylspiro[2H-1,4-benzodioxepin-3(5H)4'-piperidine]] | – | – | -27 | – |
| CC1Oc2c(Cl)cccc2COC12CCN(CCCC(c1ccccc1)c1ccccc1)CC2 (centres unmarked) [Example 74, 1'-(4,4-Diphenylbutyl)-9-chloro-2-methylspiro[2H-1,4-benzodioxepin-3(5H)4'-piperidine]hydrochloride] | – | – | -25 | – |
| CC1Oc2ccc(F)cc2COC12CCN(CCCC(c1cccc(F)c1)c1cccc(F)c1)CC2 (centres unmarked) [Example 76, 1'-[4,4-Bis(3-fluorophenyl)butyl]-7-fluoro-2-methylspiro[2H-1,4-benzodioxepin-3(5H)4'-piperidine]hydrochloride] | – | – | -38 | SHR mm Hg (decrease in mean arterial blood pressure) ([1]; Table III, 0.3 mg/kg PO): -31 mm Hg |
| CC1Oc2ccc([N+](=O)[O-])cc2COC12CCNCC2 (centres unmarked) [Example 81, 2-Methyl-7-nitrospiro[2H-1,4-benzodioxepin-3(5H)4'-piperidine]hydrochloride] | – | – | -80 | – |
| CC1Oc2ccc(Cl)cc2COC12CCN(C(c1ccc(F)cc1)c1ccc(F)cc1)CC2 (centres unmarked) [Example 82, 7-Chloro-2-methyl-1'-bis(4-fluorophenyl)methylspiro[2H-1,4-benzodioxepin-3(5H)4'-piperidine]hydrochloride] | – | – | -30 | – |
| CC1Oc2ccccc2COC12CCN(CCCCC(c1ccc(F)cc1)c1ccc(F)cc1)CC2 (centres unmarked) [Example 84, 2-Methyl-1'-[5,5-bis(4-fluorophenyl)pentyl]spiro[2H-1,4-benzodioxepin-3(5H)4'-piperidine]hydrochloride] | – | – | -34 | – |
| CC1Oc2ccccc2COC12CCN(CC(O)COc1ccc(F)cc1)CC2 (centres unmarked) [Example 90, 2-Methyl-1'-[2-hydroxy-3-(4-fluorophenoxy)propyl]spiro[2H-1,4-benzodioxepin-3(5H)4'-piperidine]hydrochloride] | – | – | -99 | – |
| COc1ccc2c(c1)c(CC(=O)O)c(C)n2C(=O)c1ccc(Cl)cc1 [Indomethacin, reference compound] | – | – | – | ED50 (mice; po): 0.7 mg/kg |
| CCC(=O)O[C@](Cc1ccccc1)(c1ccccc1)[C@H](C)CN(C)C [Propoxyphene, reference compound] | – | – | – | ED50 (mice; sc): 3.9 mg/kg |
